Columns and labels:
[1] = Octanol/aqueous buffer partition coefficient (modified shake-flask); type: physicochemical; conditions: octanol/water, buffered at pH 7 with 10 mM Tris
Text: To understand better the limitations of TPP in directing fluorophores to mitochondria, we prepared two additional TPP-derivatives, one based on 6-carboxyfluorescein (FL-TPP) and one on coumarin 343 (C343-TPP). […] To test this hypothesis, we conducted live cell fluorescence imaging experiments with FL-TPP. […] Not only did FL-TPP fail to accumulate in mitochondria, it was cell-impermeable under our imaging conditions. In contrast, the cationic C343-TPP strongly colocalized with MitoTracker Red in live HeLa cells (Pearson's r=0.72±0.02). To quantify the effect of hydrophobicity in mitochondrial-targeting, we measured the octanol/aqueous buffer partition coefficient (log P) for our TPP constructs and two MitoTracker dyes. We then tabulated the log P, charge of the predominate species in solution at physiological pH, and cellular localization for each dye (Table 1). […] Along with cationic charge, a minimum level of lipophilicity must be reached in order to evade endo/lysosomal sequestration and enable effective mitochondrial targeting.

[2] = tested on: HeLa cells; assay: Live cell fluorescence imaging: localization, co-localization and uptake; type: cell-based; conditions: fluorescence microscopy, live HeLa cells (Table 1)
Experimental: FIG. 6 depicts live cell imaging of HeLa cells. 500 nM mitotracker Red was bath-applied along with 1 μM DA-ZP1-TPP for 30 min at 37° C. and 5% CO2. After exposure to 25 μM 1:2 zinc:pyrithione, fluorescent images were acquired and the co-localization of the two sensors was assessed. The calculated Pearson's correlation coefficient (r) was r=0.581±0.097 (n=9), which represents the average of 9 ROIs over three independent plates.
FIG. 14 depicts live cell imaging of HeLa cells. 1 μM Lysotracker Red was bath-applied along with 2 μM ZP1-TPP. The calculated Pearson's correlation coefficient (r) was r=0.45±0.15, which represents the average of 9 ROIs over three independent plates.
FIG. 24 depicts fluorescence images of live HeLa cells. HeLa cells were pretreated with a 1 μM solution of DA-ZP1-TPP in dye- and serum-free medium for 30 min (37° C., 5% CO2). […] The signal from MitoTracker Red (c) correlates well with the signal from the zinc-bound sensor (d). Pearson's r=0.64±0.1 (n=18).
FIG. 27 depicts deconvoluted fluorescence microscopy images of live HeLa cells pretreated with ZP1-R9 (5 μM) or DA-ZP1-R9 (2.5 μM) and the indicated organelle stain. Top, ZP1-R9: (a) Differential interference contrast (DIC) image, (b) signal from ZP1-R9, (c) signal from LysoTracker Red, (d) overlay of (b) and (c). Pearson's r=0.42±0.16 (n=8). Bottom, DA-ZP1-R9: (e) DIC, (f) signal from DA-ZP1-R9 after treatment with 25 μM ZnPT, (g) signal from Hoechst 33258, (h) overlay of (f) and (g). Scale bar=25 μm.
FIG. 29 depicts deconvoluted fluorescence microscopy images of live HeLa cells pretreated with 1 μM DA-ZP1-R9 and 100 nM Dextran Red. (a) Differential interference contrast (DIC), (b) signal from DA-ZP1-R9 after addition of 25 μM ZnPT (c) signal from Dextran Red, (d) overlay of (b) and (c). Pearson's r=0.55±0.12 (n=11). Scale bar=25 μm.
FIG. 31 depicts deconvoluted fluorescence microscopy images of ZP1-(Fxr)3 and DA-ZP1-r(Fxr)3 in live HeLa cells. Top, cells pretreated with medium containing 2.5 μM of ZP1-(Fxr)3: (a) Differential interference contrast (DIC) image, (b) signal from ZP1-(Fxr)3, (c) signal from Dextran Red, (d) overlay of (b) and (c). Pearson's r=0.71±0.07. Bottom, cells pretreated with 1 μM DA-ZP1-r(Fxr)3: (e) DIC, (f) signal from DA-ZP1-r(Fx)3 after treatment with 25 μM ZnPT, (g) signal from MitoTracker Red, (h) overlay of (f) and (g). Pearson's r=0.41±0.09. Scale bar=25 μm.
FIG. 33 depicts deconvoluted fluorescence microscopy images of DCF-r(Fxr)3 and DA-DCF-r(Fxr)3 in live HeLa cells. Top, cells pretreated with 5 μM DCF-r(Fxr)3 and 500 nM MitoTracker Red for 30 min. (a) differential contrast image (DIC), (b) signal from DCF-r(Fxr)3, (c) signal from MitoTracker Red. Bottom, cells pretreated with 5 μM DA-DCF-r(Fxr)3 and 500 nM MitoTracker Red for 30 min. (d) DIC, (e) signal from DCF-r(Fxr)3, (f) signal from MitoTracker Red. The global Pearson's r=0.57±0.16 (n=37). Cells with high levels of DA-DCF-r(Fxr)3 (e, red outline) have a higher Pearson's r=0.83±0.08 (n=10). Scale bar=25 μm.
We used HeLa cells as a model system to evaluate the ability of DA-ZP1-TPP to target mitochondria and respond to changes in intracellular zinc levels. […] Over a two-hour period, the fluorescence intensity from the sensor remained constant, implying that the acetylated form is stable against intracellular esterases (FIG. 24e). […] Addition of 100 μM TPEN attenuated the fluorescence signal by ˜2.4-fold (FIG. 24f). […]

[3] = Charge of predominate species in solution at physiological pH; type: physicochemical; conditions: physiological pH = 7.4

## CC(=O)Oc1c(Cl)cc2c(c1CN(Cc1ccccn1)Cc1ccccn1)Oc1c(cc(Cl)c(OC(C)=O)c1CN(Cc1ccccn1)Cc1ccccn1)C21OC(=O)c2ccc(C(=O)NCC[P+](c3ccccc3)(c3ccccc3)c3ccccc3)cc21 [DA-ZP1-TPP]
[1]
  log P: 0.74±0.18
[2]
  Localization: Mitochondria
[3]
  Charge of the predominate species in solution: +1

## O=C(NCC[P+](c1ccccc1)(c1ccccc1)c1ccccc1)c1ccc2c(c1)C1(OC2=O)c2cc(Cl)c(O)c(CN(Cc3ccccn3)Cc3ccccn3)c2Oc2c1cc(Cl)c(O)c2CN(Cc1ccccn1)Cc1ccccn1 [ZP1-TPP]
[1]
  log P: −0.11 ± 0.01
[2]
  Localization: Endo/lysosome
[3]
  Charge of the predominate species in solution: Zwitterion
